Experimental data: patent US8178525B2 (priority 2008, dated 2012)
Where a name gives a salt, the structure may show the parent alone. Read-outs that look alike come from different tables or passages of the source. Marks after values point to notes of the source that are not given here.

How the values were obtained:
physchem = assay type: physicochemical
From the text: Rivaroxaban represented by formula A was used as the comparison drug.

rat tail bleeding time = experiment: Bleeding time (BT) in rat tail bleeding model; assay type: in vivo; details: for Prolongation of bleeding time (X-fold): rat tail, po
Protocol: Fasted, male Sprague-Dawley rats, weighed 200-240 g and aged approximately 7 weeks, were anesthetized by intraperitoneal injection of pentobarbital-Na (60 mg/kg). The FXa inhibitors or vehicle was given orally 60 min before the tails of anesthetized rats were transected 2 mm from the tip and vertically immersed in saline at 37° C. The time until continuous blood flow ceased for >30 s was measured, with a maximum observation time of 30 min (longer bleeding time were assigned a value of 30 min).

human FXa = target: T1, human FXa (Homo sapiens, UniProt P00742); experiment: Inhibitory activity against purified human FXa, chromogenic substrate S-2765; assay type: biochemical
T1 construct: purchased Enzyme Research Laboratories
Protocol: Human FXa was purchased from Enzyme Research Laboratories. 96-well microplate was purchased from Corning Life Sciences.
Inhibitory activity of the oxazolidinone derivatives with cyclic amidoxime or cyclic amidrazone group represented by formula I of the present invention against FXa was measured as follow.
The reaction was initiated by the addition of the substrate, and the absorbance was monitored continuously at 405 nm for 5 min using SpectraMax 190 (Molecular Devices, USA). The inhibitory constant (Ki) against human FXa was calculated according to the Cheng-Prusoff equation (Ki=IC50/1+[S]/Km), where [S] is the substrate concentration, and Km is the MichalisMenten constant. Km was determined from a Lineweaver-Burk plot. […] IC50 values were calculated using GraFit software version 5.0.12 (Erithacus Software Ltd., UK).

[1] = system: Citrated human and rat plasma; experiment: Prothrombin time (PT), method using coagulometer; assay type: biochemical; details: concentration required to double the plasma clotting times, plasma species not given
Protocol: (§1) Effect of the oxazolidinone derivatives with cyclic amidoxime or cyclic amidrazone group represented by formula I of the present invention on blood coagulation was investigated by measuring prothrombin time (PT).
a) Method using coagulometer: Prothrombin time (PT) was measured with a Thrombotimer 4-channel coagulometer (Behnk Elektronik, Germany). Citrated human and rat plasma were used in the assays. For the PT measurement, 100 uL of freshly thawed plasma was mixed with 3 uL of serial dilution of test compound or DMSO. After 5 min incubation at 37° C., 200 uL of STA-Neoplastine (Diagnostica Stago, France) was added to start clot formation. Anticoagulant activity of the compounds was defined as the concentration required to double the plasma clotting times [2×PT (uM)]. Human plasma was obtained from Daejeon Red Cross Blood Center. […] Blood was collected into plastic tubes containing 1/10 volume of 3.8% sodium citrate. Plasma was obtained by immediate centrifugation at 2500 g for 10 min at 4° C., and stored at −70° C.

[2] = system: thrombus formation in rat AV-shunt; experiment: Antithrombotic effect in arteriovenous shunt (AV-shunt) model in rats; assay type: in vivo; details: oral 60 min before shunt, dose not given
Protocol: Antithrombotic effect of the oxazolidinone derivatives with cyclic amidoxime or cyclic amidrazone group represented by formula I of the present invention was evaluated using arteriovenous (AV) shunt in rats. Fasted, male Sprague-Dawley rats, weighed 200-240 g and aged approximately 7 weeks, were anesthetized by intraperitoneal injection of urethane (1.25 g/kg) or chloral hydrate. An arteriovenous (AV) shunt in anesthetized rats was performed as described previously, with minor modification [Journal of Thrombosis and Haemostasis (2004) 3, 514]. The left common carotid artery and the right jugular vein were cannulated with two 200-mm-long, saline filled tubes (PE-50, Becton Dickinson, USA). The polyethylene tubes were connected through 8-mm-long silicone tubing (L/S® 13, MasterFlex, USA) with a 50-mm-long silicone tube (L/S® 16, MasterFlex, USA) containing a […]. The compound or vehicle was given orally 60 min before shunt was opened for 15 min. The cotton thread was then withdrawn and weighed. ED50 values were calculated by linear regression analysis using Excel 2003 (Microsoft®.

citrated plasma = experiment: Prothrombin time (PT), method using spectramax; assay type: biochemical, human and rat; details: concentration required to double the plasma clotting times, absorbance 340 nm, plasma species not given
Protocol: as §1
b) Method using spectramax: The compound solution of serial dilution (5 uL) according to the present invention was mixed with citrated plasma (45 uL) followed by addition of STA-Neoplastine (Diagnostica Stago, France) after 5 min at 37° C. Absorbance at 340 nm was continuously monitored and the PT was determined as time (in seconds) when the absorbance at 340 nm reached 0.1. Anticoagulant activity of the compounds was defined as the concentration required to double the plasma clotting times [2×PT (uM)]. Human plasma was obtained from Daejeon Red Cross Blood Center. […] Blood was collected into plastic tubes containing 1/10 volume of 3.8% sodium citrate. Plasma was obtained by immediate centrifugation at 2500 g for 10 min at 4° C., and stored at −70° C.

[3] = asterisked values (chloral hydrate anesthetic)
[4] = values without asterisk (urethane anesthetic)
[5] = purified human FXa 2.6 nM, S-2765 300 uM, pH 7.8, 37° C., Cheng-Prusoff, Km 125 μM, read-out: Ki (nM), inhibition constant against human FXa

T1 sequence (P00742 235-488 limits assumed): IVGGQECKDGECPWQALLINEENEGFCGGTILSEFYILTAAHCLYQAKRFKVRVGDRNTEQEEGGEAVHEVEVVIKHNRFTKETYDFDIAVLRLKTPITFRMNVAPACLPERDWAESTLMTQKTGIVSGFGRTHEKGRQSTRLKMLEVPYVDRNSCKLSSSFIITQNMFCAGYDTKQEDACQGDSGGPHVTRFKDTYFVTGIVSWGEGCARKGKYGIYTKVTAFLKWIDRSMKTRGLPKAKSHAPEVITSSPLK
T1 sequence (P00742 41-179 partner limits assumed): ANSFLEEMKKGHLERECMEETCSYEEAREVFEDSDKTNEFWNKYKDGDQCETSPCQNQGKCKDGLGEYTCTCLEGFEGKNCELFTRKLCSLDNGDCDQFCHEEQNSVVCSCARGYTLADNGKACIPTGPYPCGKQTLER

| SMILES | Ki (human FXa) [nM] | 2xPT (uM) Coagulometer [1] [µM] | Inhibition of thrombus formation (%) [2, 3] | Inhibition of thrombus formation (%) [2, 4] [%] | 2xPT (uM) Spectramax (citrated plasma) [µM] | Ki (human FXa; [5]) [nM] | also measured |
| --- | --- | --- | --- | --- | --- | --- | --- |
| CN1CCON=C1c1ccc(N2C[C@H](CNC(=O)c3ccc(Cl)s3)OC2=O)cc1 [100 (HCl salt)] |  |  |  |  |  |  | solubility (physchem; water, read-out: Aqueous Solubility): 12 mM; Prolongation of bleeding time (X-fold) (rat tail bleeding time; dose 5 mg/kg): 1.2 X-fold; Prolongation of bleeding time (X-fold) (rat tail bleeding time; dose 10 mg/kg): 0.9 X-fold |
| CN1CCON=C1c1ccc(N2C[C@H](CNC(=O)c3ccc(Cl)s3)OC2=O)cc1 [100 (MSA salt)] |  |  |  |  |  |  | Aqueous Solubility (physchem): >20 mM; Prolongation of bleeding time (X-fold) (rat tail bleeding time; dose 5 mg/kg): 1.1 X-fold; Prolongation of bleeding time (X-fold) (rat tail bleeding time; dose 10 mg/kg): 1.8 X-fold; Prolongation of bleeding time (X-fold) (rat tail bleeding time; dose 20 mg/kg): 5.1 X-fold |
| O=C(NC[C@H]1CN(c2ccc(N3CCNC=N3)cc2)C(=O)O1)c1ccc(Cl)s1 [109 (MSA salt)] |  |  |  |  |  |  | Aqueous Solubility (physchem): >20 mM; Prolongation of bleeding time (X-fold) (rat tail bleeding time; dose 2.5 mg/kg): 2.1 X-fold; Prolongation of bleeding time (X-fold) (rat tail bleeding time; dose 5 mg/kg): 3.8 X-fold; Prolongation of bleeding time (X-fold) (rat tail bleeding time; dose 10 mg/kg): 5.7 X-fold |
| CN1CCON=C1c1ccc(N2C[C@H](CNC(=O)c3ccc(Cl)s3)OC2=O)cc1 [Compound 100] | 7.11 | 0.69 ± 0.07 | 58% | 65 | 0.25 |  | prolongation of bleeding time compared to the vehicle control (rat tail bleeding time; rat tail bleeding model, 10 mg/kg): did not prolonged bleeding time; Prolongation of bleeding time (X-fold) (rat tail bleeding time; dose 5 mg/kg): 0.9 X-fold |
| O=C(NC[C@H]1CN(c2ccc(C3=NOCCN3)cc2)C(=O)O1)c1ccc(Cl)s1 [Compound 101] | 110 |  |  | 45 | 1.39 |  |  |
| CCN1CCON=C1c1ccc(N2C[C@H](CNC(=O)c3ccc(Cl)s3)OC2=O)cc1 [Compound 102] | 8.91 | 1.76 |  | 61 | 0.77 |  |  |
| O=C(NC[C@H]1CN(c2ccc(C3=NOCCN3C3CC3)cc2)C(=O)O1)c1ccc(Cl)s1 [Compound 103] | 53.3 |  |  | 24 | 1.10 |  |  |
| CN1OCCN=C1c1ccc(N2C[C@H](CNC(=O)c3ccc(Cl)s3)OC2=O)cc1 [Compound 104] |  |  |  | 21 | 0.05 | 10 |  |
| CCN1OCCN=C1c1ccc(N2C[C@H](CNC(=O)c3ccc(Cl)s3)OC2=O)cc1 [Compound 105] |  | 0.16 |  | 80 | 0.04 | 3.62 |  |
| CCN1CCN(C)N=C1c1ccc(N2C[C@H](CNC(=O)c3ccc(Cl)s3)OC2=O)cc1 [Compound 106] | > 30 |  |  |  | 0.33 |  |  |
| O=C(NC[C@H]1CN(c2ccc(C3=NCCN4C(=O)CCN34)cc2)C(=O)O1)c1ccc(Cl)s1 [Compound 108] | 15.8 | 1.00 |  | 52 | 0.35 |  |  |
| O=C(NC[C@H]1CN(c2ccc(N3CCNC=N3)cc2)C(=O)O1)c1ccc(Cl)s1 [Compound 109-HCl] |  |  |  |  |  |  | Aqueous Solubility (physchem): 6 mM |
| O=C(NC[C@H]1CN(c2ccc(N3CCNC=N3)cc2)C(=O)O1)c1ccc(Cl)s1 [Compound 109] | 4.37 | 0.44 | 73% | 78 | 0.21 |  | Prolongation of bleeding time (X-fold) (rat tail bleeding time; dose 2.5 mg/kg): 2.5 X-fold; Prolongation of bleeding time (X-fold) (rat tail bleeding time; dose 5 mg/kg): 4.0 X-fold; Prolongation of bleeding time (X-fold) (rat tail bleeding time; dose 10 mg/kg): 4.1 X-fold |
| CC1=NN(c2ccc(N3C[C@H](CNC(=O)c4ccc(Cl)s4)OC3=O)cc2)CCN1 [Compound 110] |  | 0.31 | 45* % |  |  | 2.07 |  |
| CCC1=NN(c2ccc(N3C[C@H](CNC(=O)c4ccc(Cl)s4)OC3=O)cc2)CCN1 [Compound 111] |  | 0.40 | 17* % |  |  | 18.9 |  |
| CN1C=NN(c2ccc(N3C[C@H](CNC(=O)c4ccc(Cl)s4)OC3=O)cc2)CC1 [Compound 112] |  | 4.26 | 44* % |  |  | 120 |  |
| CC1=NN(c2ccc(N3C[C@H](CNC(=O)c4ccc(Cl)s4)OC3=O)cc2)CCN1C [Compound 113] |  | 0.62 | 12* % |  |  | 29.3 |  |
| CN1C=NCCN1c1ccc(N2C[C@H](CNC(=O)c3ccc(Cl)s3)OC2=O)cc1 [Compound 114] |  | 0.50 | 5* % |  |  | 2.86 |  |
| O=C(NC[C@H]1CN(c2ccc(N3C=NOCC3)cc2)C(=O)O1)c1ccc(Cl)s1 [Compound 115] |  |  |  | 29 | 1.49 | 84 |  |
| CC1=NOCCN1c1ccc(N2C[C@H](CNC(=O)c3ccc(Cl)s3)OC2=O)cc1 [Compound 116] |  | 3.51 |  | 74 | 0.71 | 23.2 |  |
| O=C(NC[C@H]1CN(c2ccc(N3CCON=C3C3CC3)cc2)C(=O)O1)c1ccc(Cl)s1 [Compound 117] |  |  |  |  | 2.2 | 101 |  |
| O=CN1CCN(c2ccc(N3C[C@H](CNC(=O)c4ccc(Cl)s4)OC3=O)cc2)C=N1 [Compound 118] |  | 9.38 |  | 74 | 4.88 | 132 |  |
| CC1=NN(C)CCN1c1ccc(N2C[C@H](CNC(=O)c3ccc(Cl)s3)OC2=O)cc1 [Compound 121] |  | 2.90 |  | 51 | 0.54 | 95.6 |  |
